Data as given in patent publication US20190274303A1, “USE OF A DIFLUORO-(2-HYDROXYPROPYL)PYRIDINE COMPOUND AS A FUNGICIDE FOR CONTROL OF PHYTOPATHOGENIC FUNGI OF BARLEY” (Dow AgroSciences LLC, priority 2016, published 2019).

What was measured:
Type in all cases: in vivo
[1] = tested on: Rhyncosporium secalis (RHYNSE); experiment: Field assessment of barley leaf scald, Trial 1 (EC formulation alone or with adjuvants); settings: for % Control RHYNSE: based on AUDPC, winter barley, field, EC
Procedure: Field assessment of Rhyncosporium secalis (RHYNSE) in barley:
Trial 1: A fungicidal treatment containing Compound I was assessed against barley scald (RHYNSE) in two separate field trials. In the first trial, a fungicidal treatment containing an EC formulation of compound I by itself and in combination with two separate adjuvants was sprayed on barley plants at rates of 50, 100 and 150 grams active ingredient per hectare (g ai/ha). Fungicidal treatments were applied at B47-51 (curative, 3% infection on leaf 2) growth stage of winter barley (HORVW, Lomerit variety) under natural infection of RHYNSE. The treatment was part of an experimental trial designed as a randomized complete block with four replications and a plot of approximately 2×3 m. Compound I was applied at water volume of 200 L/ha, using a backpack precision plot sprayer (BICYCAIR, Flat Fan Air Assisted Nozle) and pressurized at 220 kPa.
(§1) Disease severity was recorded as a percentage of visual diseased foliage on whole plot. Barley leaf scald infection was assessed several times during the growing season with a final assessment 39 days after application of compound I. The disease infection was recorded following EPPO PP1/26 guideline prescriptions. Area under the disease progress curve (AUDPC) was calculated for each plot using the sets of recorded severity data. Relative AUDPC (% control based on AUDPC) was calculated as percent of the nontreated control.
(§2) In each case of the following Tables, the rating scale of percent control based on AUDPC is as follows: […]

Puccinia hordei (PUCCHD) = experiment: Field assessment of barley rust; settings: for Percent Control PUCCHD: based on AUDPC, winter barley, field
Procedure: Field Assessment of Puccinia hordei (PUCCHD) in Barley:
A fungicidal treatment containing Compound I was assessed against barley rust (PUCCHD) in two separate field trials. In each trial, fungicidal treatments of Compound I were applied using two separate adjuvant systems. In the first system, an EC formulation of compound I was tank mixed with Agnique BP-420 (50%) at an active:adjuvant ratio of 1:2. The second adjuvant system was an SC formulation of Compound I tank mixed with Agnique BP-420 EW (38.5%) at an active:adjuvant ratio of 1:2 and Agnique FOH TDA-9 (30% w/w) applied at 0.33% V/V. Both the EC and SC formulation was sprayed on barley plants at rates of 25, 50, 75, 100, 150, 200 and 250 grams active ingredient per hectare (g ai/ha). Fungicidal treatments were applied at B39 (early curative, 1% infection on leaf 1) growth stage of winter barley (HORVW, Maris Otter and Lomerit variety) under natural infection of PUCCHD. The treatment was part of an experimental trial designed as a randomized complete block with four replications.
as §1, with “rust” for “leaf scald infection was assessed several times during the growing season with a final assessment 39 days after application of compound I. The disease”
as §2

[2] = tested on: Pyrenophora teres (PYRNTE); experiment: Field assessment of net blotch of barley; settings: for Percent Control PYRNTE: based on AUDPC, barley, field
Procedure: Field Assessment of Pyrenophora teres (PYRNTE) in Barley:
A fungicidal treatment containing Compound I was assessed against net blotch of barley (PYRNTE) in two separate field trials. In each trial, fungicidal treatments of Compound I were applied using two separate adjuvant systems. In the first system, an EC formulation of compound I was tank mixed with Agnique BP-420 (50%) at an active:adjuvant ratio of 1:2. The second adjuvant system was an SC formulation of Compound I tank mixed with Agnique BP-420 EW (38.5%) at an active:adjuvant ratio of 1:2 and Agnique FOH TDA-9 (30% w/w) applied at 0.33% V/V. Both the EC and SC formulation was sprayed on barley plants at rates of 25, 50, 75, 100, 150, 200 and 250 grams active ingredient per hectare (g ai/ha). In the first trial, fungicidal treatments of Compound I were applied at B39 (early curative, 1% infection on leaf 1) growth stage of winter barley (HORVW, Lomerit variety) under natural infection of PYRNTE. The treatment was part of an experimental trial designed as a randomized complete block with four replications. In the second trial, fungicidal treatments of Compound I were applied at B37 (protectant, 1% infection on leaf 4) growth stage of spring barley (HORVS, Scarlett variety) under natural infection of PYRNTE. The treatment was part of an experimental trial designed as a randomized complete block with four replications.
as §1, with “Net blotch” for “Barley leaf scald infection was assessed several times during the growing season with a final assessment 39 days after application”, “barley” for “compound I. The disease”
as §2

[3] = 25 g ai/ha, EC + Agnique BP-420
[4] = 25 g ai/ha, SC + Agnique BP-420 EW and Agnique FOH TDA-9
[5] = 50 g ai/ha, EC + Agnique BP-420
[6] = 75 g ai/ha, EC + Agnique BP-420
[7] = 75 g ai/ha, SC + Agnique BP-420 EW and Agnique FOH TDA-9
[8] = 100 g ai/ha, EC + Agnique BP-420
[9] = 100 g ai/ha, SC + Agnique BP-420 EW and Agnique FOH TDA-9
[10] = 150 g ai/ha, EC + Agnique BP-420
[11] = 150 g ai/ha, SC + Agnique BP-420 EW and Agnique FOH TDA-9
[12] = 200 g ai/ha, EC + Agnique BP-420
[13] = 200 g ai/ha, SC + Agnique BP-420 EW and Agnique FOH TDA-9
[14] = 250 g ai/ha, EC + Agnique BP-420
[15] = 250 g ai/ha, SC + Agnique BP-420 EW and Agnique FOH TDA-9

N#Cc1ccc(Oc2ccc(C(F)(F)C(O)(Cn3ncnc3S)c3ccc(F)cc3F)nc2)cc1 (stereo not shown) [Compound I, 4-((6-(2-(2,4-difluorophenyl)-1,1-difluoro-2-hydroxy-3-(5-mercapto-1H-1,2,4-triazol-1-yl)propyl)pyridin-3-yl)oxy)benzonitrile]
% Control RHYNSE ([1]; 50 g ai/ha, Agnique BP-420 (50% w/w at 0.15% v/v)): C (26-50) | % Control RHYNSE ([1]; 50 g ai/ha, Agnique BP-420 (50% w/w at 0.3% v/v)): B (51-74) | % Control RHYNSE ([1]; 50 g ai/ha, Agnique SBO-10 (0.15% v/v)): C (26-50) | % Control RHYNSE ([1]; 50 g ai/ha, adjuvant None): C (26-50) | % Control RHYNSE ([1]; 100 g ai/ha, Agnique BP-420 (50% w/w at 0.15% v/v)): B (51-74) | % Control RHYNSE ([1]; 100 g ai/ha, Agnique BP-420 (50% w/w at 0.3% v/v)): B (51-74) | % Control RHYNSE ([1]; 100 g ai/ha, Agnique SBO-10 (0.15% v/v)): B (51-74) | % Control RHYNSE ([1]; 100 g ai/ha, adjuvant None): C (26-50) | % Control RHYNSE ([1]; 150 g ai/ha, Agnique BP-420 (50% w/w at 0.15% v/v)): B (51-74) | % Control RHYNSE ([1]; 150 g ai/ha, Agnique BP-420 (50% w/w at 0.3% v/v)): B (51-74) | % Control RHYNSE ([1]; 150 g ai/ha, Agnique SBO-10 (0.15% v/v)): B (51-74) | % Control RHYNSE ([1]; 150 g ai/ha, adjuvant None): C (26-50) | fungicidal effect on Rhyncosporium secalis ([1]; leaf scald of barley, general statement): significant fungicidal effect | fungicidal effect on Puccinia Hordei (Puccinia hordei (PUCCHD); barley rust, general statement): significant fungicidal effect | Percent Control PUCCHD (Puccinia hordei (PUCCHD); [3]): B (51-74) | Percent Control PUCCHD (Puccinia hordei (PUCCHD); [4]): B (51-74) | Percent Control PUCCHD (Puccinia hordei (PUCCHD); [5]): B (51-74) | Percent Control PUCCHD (Puccinia hordei (PUCCHD); 50 g ai/ha, Sc (SC + Agnique BP-420 EW and Agnique FOH TDA-9)): B (51-74) | Percent Control PUCCHD (Puccinia hordei (PUCCHD); [6]): A (75-100) | Percent Control PUCCHD (Puccinia hordei (PUCCHD); [7]): B (51-74) | Percent Control PUCCHD (Puccinia hordei (PUCCHD); [8]): A (75-100) | Percent Control PUCCHD (Puccinia hordei (PUCCHD); [9]): A (75-100) | Percent Control PUCCHD (Puccinia hordei (PUCCHD); [10]): A (75-100) | Percent Control PUCCHD (Puccinia hordei (PUCCHD); [11]): A (75-100) | Percent Control PUCCHD (Puccinia hordei (PUCCHD); [12]): A (75-100) | Percent Control PUCCHD (Puccinia hordei (PUCCHD); [13]): A (75-100) | Percent Control PUCCHD (Puccinia hordei (PUCCHD); [14]): A (75-100) | Percent Control PUCCHD (Puccinia hordei (PUCCHD); [15]): A (75-100) | Percent Control PYRNTE [2, 3]: D (1-25) | Percent Control PYRNTE [2, 4]: D (1-25) | Percent Control PYRNTE [2, 5]: D (1-25) | Percent Control PYRNTE ([2]; 50 g ai/ha, SC + Agnique BP-420 EW and Agnique FOH TDA-9): D (1-25) | Percent Control PYRNTE [2, 6]: D (1-25) | Percent Control PYRNTE [2, 7]: D (1-25) | Percent Control PYRNTE [2, 8]: D (1-25) | Percent Control PYRNTE [2, 9]: C (26-50) | Percent Control PYRNTE [2, 10]: C (26-50) | Percent Control PYRNTE [2, 11]: C (26-50) | Percent Control PYRNTE [2, 12]: C (26-50) | Percent Control PYRNTE [2, 13]: B (51-74) | Percent Control PYRNTE [2, 14]: B (51-74) | Percent Control PYRNTE [2, 15]: B (51-74) | fungicidal effect on Pyrenophora teres ([2]; net blotch of barley, general statement): significant fungicidal effect
